US8314150B2, “Kinase protein binding inhibitors” (priority 2008, dated 2012)

Experiments:
[1] = system: BT474 breast cancer cells; test: BT474 subcutaneous tumor growth in nude mice; format: in vivo
Experimental: (§1) Cell Viability Assay—The Cells were treated with peptides for 24 hours at different peptide concentrations. The 3-(4,5-dimethylthiazol-2-yl)-5-(3-carboxymethoxyphenyl)-2-(4-sulfophenyl)-2H-tetrazolium compound from Promega Viability kit (Madison, Ill.) was added, and the cells were incubated at 37° C. for 1-2 hours. The optical density on 96-plate was analyzed with a microplate reader at 490 nm to determine cell viability. In addition, cells were stained with trypan blue after 24 hours of treatment with Y15 and the percent of cells that stained positive were determined with a hemacytometer. Cell adhesion assay—The poly-L-Lysine or Collagen (5 μg/ml) coated 96-well plates were blocked with the blocking buffer (medium with 0.5% BSA) for 1 hour at 37 C. The cells were pre-treated with drugs for 3 hours and plated for adhesion at 4×10^5 cells. Cells were incubated at 37 C for 1 hour, fixed in 3.7% formaldehyde, washed in 0.1% BSA in PBS and stained with crystal violet (5 mg/ml in 2% ethanol) for 10 minutes. Then 2% SDS was added to the dried plated and OD at 590 nm was measured for detecting cell adhesion. […] Protein concentrations were determined using a Bio-Rad Kit. The boiled samples were loaded on Ready SDS-10% PAGE gels (Bio Rad, Inc) and used for Western blot analysis with the protein-specific antibody. […] Detachment Assay—Cells were plated with and without inhibitors for 24 hours, and detached and attached cells were counted in a hemocytometer. We calculated the percent of detachment by dividing the number of detached cells by the total number of cells. The percent of detached cells was calculated in three independent experiments. […] The percent of apoptotic cells was calculated as a ratio of apoptotic detached cells divided by the total number of cells in three independent experiments in several fields with the fluorescent microscope. For each experiment 300 cells per treatment were counted. In vitro Kinase Assay—10 μCi of [γ-^32P]-ATP in a kinase buffer (20 mM HEPES, pH 7.4, 5 mM MgCl2, 5 mM MnCl2, 0.1 mM Na3VO4 with 0.1 μg of purified FAK protein were incubated in a kinase buffer with 10 μCi of [γ-^32P]-ATP. The kinase reaction was performed for 5 minutes at room temperature and stopped by addition of 2× Laemmli buffer. Proteins were separated on a Ready SDS-10% PAGE gel, and the phosphorylated enolase was visualized by autoradiography. KinaseProfiler screening—Kinase specificity screening was performed with KinaseProfiler™ Service (Millipore) available on http://www.millipore.com/drugdiscovery/dd3/KinaseProfiler. […]

[2] = system: Y397 phosphorylation of FAK; test: Western blotting with Y397 FAK antibody, BT474 cells; format: cell-based
Experimental: Cell Viability Assay—The Cells were treated with peptides for 24 hours at different peptide concentrations. The 3-(4,5-dimethylthiazol-2-yl)-5-(3-carboxymethoxyphenyl)-2-(4-sulfophenyl)-2H-tetrazolium compound from Promega Viability kit (Madison, Ill.) was added, and the cells were incubated at 37° C. for 1-2 hours. The optical density on 96-plate was analyzed with a microplate reader at 490 nm to determine cell viability. In addition, cells were stained with trypan blue after 24 hours of treatment with Y15 and the percent of cells that stained positive were determined with a hemacytometer. Cell adhesion assay—The poly-L-Lysine or Collagen (5 μg/ml) coated 96-well plates were blocked with the blocking buffer (medium with 0.5% BSA) for 1 hour at 37 C. The cells were pre-treated with drugs for 3 hours and plated for adhesion at 4×10^5 cells. Cells were incubated at 37 C for 1 hour, fixed in 3.7% formaldehyde, washed in 0.1% BSA in PBS and stained with crystal violet (5 mg/ml in 2% ethanol) for 10 minutes. Then 2% SDS was added to the dried plated and OD at 590 nm was measured for detecting cell adhesion. Western Blotting—Cells or homogenized tumor samples were washed twice with cold 1×PBS and lysed on ice for 30 minutes in a buffer containing: 50 mM Tris-HCl (pH 7.5), 150 mM NaCl, 1% Triton-X, 0.5% NaDOC, 0.1% SDS, 5 mM EDTA, 50 mM NaF, 1 mM NaVO3, 10% glycerol and protease inhibitors: 10 μg/ml leupeptin, 10 μg/ml PMSF and 1 μg/ml aprotinin. The lysates were cleared by centrifugation at 10,000 rpm for 30 minutes at 4° C. Protein concentrations were determined using a Bio-Rad Kit. The boiled samples were loaded on Ready SDS-10% PAGE gels (Bio Rad, Inc) and used for Western blot analysis with the protein-specific antibody. Immunoblots were developed with chemiluminescence Renaissance reagent (NEN Life Science Products, Inc). Immunoprecipitation. Immunoprecipitation was performed according to the standard protocol. In brief, the pre-cleared lysates with equal amount of protein were incubated with 1 μg of primary antibody and 30 μl A/G agarose beads overnight at 4° C. The precipitates were washed with lysis buffer three times and re-suspended in 2× Laemmli buffer. The boiled samples were used for Western blotting, as described above. Detachment Assay—Cells were plated with and without inhibitors for 24 hours, and detached and attached cells were counted in a hemocytometer. We calculated the percent of detachment by dividing the number of detached cells by the total number of cells. The percent of detached cells was calculated in three independent experiments. Apoptosis Assay. Detached cells were collected and fixed in 3.7% formaldehyde in 1×PBS solution for the apoptosis assay. Detection of apoptosis was done with Hoechst 33342 staining. The percent of apoptotic cells was calculated as a ratio of apoptotic detached cells divided by the total number of cells in three independent experiments in several fields with the fluorescent microscope. For each experiment 300 cells per treatment were counted. In vitro Kinase Assay—10 μCi of [γ-^32P]-ATP in a kinase buffer (20 mM HEPES, pH 7.4, 5 mM MgCl2, 5 mM MnCl2, 0.1 mM Na3VO4 with 0.1 μg of purified FAK protein were incubated in a kinase buffer with 10 μCi of [γ-^32P]-ATP. The kinase reaction was performed for 5 minutes at room temperature and stopped by addition of 2× Laemmli buffer. Proteins were separated on a Ready SDS-10% PAGE gel, and the phosphorylated enolase was visualized by autoradiography. KinaseProfiler screening—Kinase specificity screening was performed with KinaseProfiler™ Service (Millipore) available on http://www.millipore.com/drugdiscovery/dd3/KinaseProfiler. The screening was performed with 1 μM Y15, 10 μM ATP and kinase substrates on 9 recombinant kinases according to Millipore protocol. Tumor Growth in Nude Mice—Female nude mice, 6 weeks old, were purchased from Harlan Laboratory. […]

[3] = Tolerability in nude mice in tumor growth inhibition experiments; format: in vivo
Experimental: (§2) Cell Viability Assay—The Cells were treated with peptides for 24 hours at different peptide concentrations. The 3-(4,5-dimethylthiazol-2-yl)-5-(3-carboxymethoxyphenyl)-2-(4-sulfophenyl)-2H-tetrazolium compound from Promega Viability kit (Madison, Ill.) was added, and the cells were incubated at 37° C. for 1-2 hours. The optical density on 96-plate was analyzed with a microplate reader at 490 nm to determine cell viability. In addition, cells were stained with trypan blue after 24 hours of treatment with Y15 and the percent of cells that stained positive were determined with a hemacytometer. […] Then 2% SDS was added to the dried plated and OD at 590 nm was measured for detecting cell adhesion. […] Protein concentrations were determined using a Bio-Rad Kit. The boiled samples were loaded on Ready SDS-10% PAGE gels (Bio Rad, Inc) and used for Western blot analysis with the protein-specific antibody. […] Detachment Assay—Cells were plated with and without inhibitors for 24 hours, and detached and attached cells were counted in a hemocytometer. We calculated the percent of detachment by dividing the number of detached cells by the total number of cells. The percent of detached cells was calculated in three independent experiments. […] For each experiment 300 cells per treatment were counted. […]

Panc-1 cells = test: Apoptosis assay (Hoechst staining), Panc-1; format: cell-based, human
Experimental: as §1, with “counted.” for “counted. In vitro Kinase Assay—10 μCi of [γ-^32P]-ATP in a kinase buffer (20 mM HEPES, pH 7.4, 5 mM MgCl2, 5 mM MnCl2, 0.1 mM Na3VO4 with 0.1 μg of purified FAK protein were incubated in a kinase buffer with 10 μCi of [γ-^32P]-ATP. The kinase reaction was performed for 5 minutes at room temperature and stopped by addition of 2× Laemmli buffer. Proteins were separated on a Ready SDS-10% PAGE gel, and the phosphorylated enolase was visualized by autoradiography. KinaseProfiler screening—Kinase specificity screening was performed with KinaseProfiler™ Service (Millipore) available on http://www.millipore.com/drugdiscovery/dd3/KinaseProfiler.”

[4] = system: BT474 breast cancer cells; test: MTT cell viability assay, BT474; format: cell-based; conditions: 24 hours
Experimental: as §2

[5] = system: normal breast epithelial cells (MCF10A); test: Trypan blue staining, normal breast epithelial cells; format: cell-based, human; conditions: doses up to 10 μM
Experimental: as §2

[6] = system: Y118-paxillin phosphorylation; test: Western blotting Y118-paxillin, BT474 cells; format: cell-based; conditions: 100 μM, 24 hours
Experimental: as §2

Y397-FAK phosphorylation = test: Y397-FAK levels in BT474 tumors (Western blotting, immunohistochemistry); format: in vivo; conditions: 30 mg/kg, vs untreated mice
Experimental: as §2

FAK = molecular target: T1, FAK (Homo sapiens, UniProt Q05397); test: In vitro kinase assay with purified recombinant FAK; format: biochemical; conditions: doses 1-100 μM tested
T1 construct: made in house; host or cells: Baculovirus system
Experimental: as §2

T1 sequence (Q05397 whole entry): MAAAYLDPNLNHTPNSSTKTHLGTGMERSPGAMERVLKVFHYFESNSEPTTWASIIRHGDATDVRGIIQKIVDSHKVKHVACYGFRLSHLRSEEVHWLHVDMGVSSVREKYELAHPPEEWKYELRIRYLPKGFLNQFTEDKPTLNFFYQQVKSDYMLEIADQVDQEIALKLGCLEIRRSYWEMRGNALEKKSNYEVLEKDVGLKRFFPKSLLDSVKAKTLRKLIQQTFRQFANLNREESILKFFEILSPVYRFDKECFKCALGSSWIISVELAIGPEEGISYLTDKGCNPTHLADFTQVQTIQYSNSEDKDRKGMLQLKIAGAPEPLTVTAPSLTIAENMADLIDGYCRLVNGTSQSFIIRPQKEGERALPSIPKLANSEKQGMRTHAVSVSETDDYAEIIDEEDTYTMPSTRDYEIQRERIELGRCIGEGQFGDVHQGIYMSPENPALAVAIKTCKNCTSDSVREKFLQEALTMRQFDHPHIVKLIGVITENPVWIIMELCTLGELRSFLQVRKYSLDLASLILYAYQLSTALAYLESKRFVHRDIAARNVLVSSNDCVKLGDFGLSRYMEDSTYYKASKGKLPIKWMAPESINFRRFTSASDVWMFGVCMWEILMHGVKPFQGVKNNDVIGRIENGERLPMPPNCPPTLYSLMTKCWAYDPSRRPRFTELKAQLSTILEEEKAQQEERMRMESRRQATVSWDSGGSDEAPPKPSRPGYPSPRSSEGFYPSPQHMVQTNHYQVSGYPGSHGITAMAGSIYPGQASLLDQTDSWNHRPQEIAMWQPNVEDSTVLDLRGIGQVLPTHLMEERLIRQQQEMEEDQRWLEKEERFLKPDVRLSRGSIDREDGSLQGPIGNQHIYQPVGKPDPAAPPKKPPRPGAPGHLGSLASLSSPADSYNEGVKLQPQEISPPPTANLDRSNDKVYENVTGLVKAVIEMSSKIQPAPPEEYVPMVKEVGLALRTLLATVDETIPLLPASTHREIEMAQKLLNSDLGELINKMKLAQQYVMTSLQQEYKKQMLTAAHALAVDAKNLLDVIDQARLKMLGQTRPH

Cl.Cl.Cl.Cl.Nc1cc(N)c(N)cc1N [Y15, 1,2,4,5-benzenetetraamine tetrahydrochloride]
tumor growth ([1]; 30 mg/kg IP, 5 days/week): significantly blocked tumor growth | inhibition of tumor growth ([1]; 30 mg/kg, alone): > 74% | tumor volume ([1]; 30 mg/kg, day 23, vs untreated): significantly less than in untreated samples | tumor weight ([1]; 30 mg/kg, day 23, vs untreated mice): significantly reduced tumor weight | total FAK level ([2]; 100 μM): down-regulates FAK | treatment time enough to completely block Y397-phosphorylation ([2]; 100 μM): 8 h | inhibition of Y397 phosphorylation compared with TAE226 ([2]; 100 μM dose, 24 hours): same inhibition as TAE226 | Y397 phosphorylation after 4 hours ([2]; 100 μM, 4 hours): did not significantly decreased Y397 phosphorylation | Y397 phosphorylation of FAK ([2]; 100 μM, 24 hours): specifically inhibited Y397 phosphorylation of FAK | dose with high inhibition of Y397 phosphorylation ([2]; 24 hours): 50 µM | dose with maximal inhibition of Y397 phosphorylation ([2]; 24 hours): 100 µM | optimal non-toxic dose ([3]; IP, nude mice): 30 mg/kg | animal weight loss or death ([3]; intraperitoneal 30 mg/kg, 5 days/week, 36 days): No animal weight loss or death was observed | apoptotic nuclei (Hoechst) (Panc-1 cells; 50 μM): no detection of apoptotic nuclei | increase in apoptosis (Panc-1 cells; 50-100 μM, not significant): less than 10% | dose at which viability started to decrease [4]: 10 µM | doses at which viability was significantly blocked [4]: 50 to 100 µM | cell viability (trypan blue) [5]: no decrease in cell viability | phosphorylation of Y118-paxillin [6]: inhibited | Y397-FAK phosphorylation in tumors (Y397-FAK phosphorylation): less Y397-FAK phosphorylation | total FAK levels in tumors (Y397-FAK phosphorylation): the same | dose from which FAK autophosphorylation activity was directly blocked (FAK): 1
